Results on 13 compounds are retold here after PMC11843658 (Journal of Enzyme Inhibition and Medicinal Chemistry, 2025).

In one test the test system is MCF7 cells. Put plainly: CCK8 assay, MCF7 breast cancer cells. The class given is cell-based. To be noted: Homo sapiens, CCK8, control drug, read-out: IC50, antiproliferative activity. How it is done:
(§1) C42B, PC3, Caco-2, HepG2, MCF7, HL-60, 8505 C, OVCAR-3, and A549 were cultured to screen the broad-spectrum antiproliferative activity of compound 14. For above cell lines, three thousand cells per well were seeded in the 96-well plate and treated by compound 14 for 48 or 72 h at different concentrations (0, 5, 10, and 20 μM). In addition, HepG2, HEP3B, HUH6, and HUH7 were cultured to screen its antiproliferative activity against liver cancer cell lines. For these liver cancer cell lines, two thousand cells per well were seeded in the 96-well plate and treated by compound 14 for 48 h at different concentrations (0, 0.625, 1.25, 2.5, and 5 μM). Then, 10 μl of CCK8 was added into each well and cells were incubated in a humidified atmosphere of 5% CO2 at 37 °C for 4 h. The 96-well plate was measured with a microplate reader (Bio-Tek, San Diego, CA) at a wavelength of 450 nm to calculate IC50 values.
For orientation: Tetrazolium dyes change colour on reduction, which living cells bring about.

In the next test the test system is HL-60 cells. Description: CCK8 assay, HL-60 leukaemia cells. The class given is cell-based. To be noted: Homo sapiens, CCK8, control drug, read-out: IC50, antiproliferative activity. Here is the method: as §1
Another test has as its system PC3 cells. Put plainly: CCK8 assay, PC3 prostate cancer cells. The class given is cell-based. As to conditions: Homo sapiens, PC-3, CCK8, control drug, read-out: IC50, antiproliferative activity. How it is done: as §1
Test [1] relates to HepG2 cells. Put plainly: CCK8 assay, HepG2 liver cancer cells. The class given is cell-based. To be noted: Homo sapiens, CCK8, control drug, read-out: IC50, antiproliferative activity. Here is the method:
as §1

The next test relates to OVCAR-3 cells. Put plainly: CCK8 assay, OVCAR-3 ovarian cancer cells. The class given is cell-based. To be noted: Homo sapiens, CCK8, control drug, read-out: IC50, antiproliferative activity. Here is the method: as §1
A further test deals with A549 cells. Description: CCK8 assay, A549 lung cancer cells. The class given is cell-based. To be noted: Homo sapiens, CCK8, control drug, read-out: IC50, antiproliferative activity. How it is done: as §1
The test system of another test is 8505 C cells. Put plainly: CCK8 assay, 8505 C thyroid cancer cells. The class given is cell-based. As to conditions: Homo sapiens, CCK8, control drug, read-out: IC50, antiproliferative activity. How it is done: as §1
A further test has as its system Caco-2 cells. Put plainly: CCK8 assay, Caco-2 colon cancer cells. The format is cell-based. To be noted: Homo sapiens, CCK8, control drug, read-out: IC50, antiproliferative activity. Here is the method:
as §1

A further test deals with C42B cells. Description: CCK8 assay, C42B prostate cancer cells. The class given is cell-based. To be noted: Homo sapiens, CCK8, control drug, read-out: IC50, antiproliferative activity. Here is the method:
as §1

For another test, the system named is H3K4me1/2. As to conditions: cited from earlier work.
The test system of another test is THP-1 cells. More on the design: method as in PMID 35525212. To be noted: read-out: IC50, antiproliferative activity; cited from earlier work.
In a further test the test system is NB cells. The arrangement: method as in PMID 36223680. As to conditions: cited from earlier work.
In test [2] the target is T1, LSD1 (Homo sapiens, UniProt O60341). The arrangement: purchased Cayman Chemical (Ann Arbor, MI). As to conditions: cited from earlier work.
The subject of another test is glioblastoma cells. The arrangement: method as in PMID 29683097. To be noted: cited from earlier work.
A further test deals with MCF-7. As to conditions: read-out: IC50, antiproliferative activity, cited from earlier work.
Another test deals with PC3. The arrangement: method as in earlier work. To be noted: PC3 cell line; read-out: IC50, antiproliferative activity; cited from earlier work.
A further test deals with HepG2. The arrangement: method as in earlier work. To be noted: HepG2 cell line; read-out: IC50, antiproliferative activity; cited from earlier work.
In test [3] the test system is diffuse large B-cell lymphoma cells. More on the design: method as in PMID 26002965. As to conditions: cited from earlier work.
In the next test the test system is MOLP-8 cells. The arrangement: method as in PMID 36476642. As to conditions: myeloma MOLP-8 cells; read-out: IC50, antiproliferative activity; cited from earlier work.
Another test deals with KMS-12-PE cells. More on the design: method as in PMID 36476642. As to conditions: myeloma KMS-12-PE cells; read-out: IC50, antiproliferative activity; cited from earlier work.
The subject of another test is HCT-116 cells. More on the design: method as in PMID 33773285. To be noted: read-out: IC50, antiproliferative activity; cited from earlier work.
For another test, the system named is ovarian cancer cells. The arrangement: method as in PMID 31264855. As to conditions: cited from earlier work.
The subject of another test is various cell lines. The arrangement: method as in PMID 26890117. To be noted: cited from earlier work.
Another test relates to ACHN cells. The arrangement: method as in PMID 33527838. To be noted: cited from earlier work.
Test [4] addresses T1, LSD1. Description: LSD1 screening assay kit (enzymatic activity). The format is biochemical. The arrangement: purchased Cayman Chemical (Ann Arbor, MI). To be noted: fluorescence, read-out: IC50 against LSD1. Here is the method: After the incubation for 30 min at 37 °C, a mixture of horseradish peroxidase solution (20 μl) and fluorometric substrate solution (10 μl) was added to each well. Then, the 96-well plate was incubated for 15 min at 37 °C. Finally, the fluorescence of each well in the 96-well plate was measured at an emission wavelength of 590 nm and an excitation wavelength of 530 nm by a fluorimeter (Agilent Technologies Inc., Palo Alto, CA). Seclidemstat, a famous LSD1 inhibitor, was used as the control drug in this assay.

In test [5] the test system is HepG2 cells. Description: Xenograft study, HepG2 cells in nude mice. The class given is in vivo, BALB/c nude mice. To be noted: 10 mg/kg by gavage every day for 21 days, nude mice bearing HepG2 cells. How it is done:
Tumorigenesis in nude mice could stimulate the growth process of human tumours in the body, and could be used to develop and evaluate the effectiveness and safety of anti-cancer candidates. Therefore, xenograft studies in nude mice were performed to evaluate anticancer effects of compound 14. Animals were treated according to the protocols established by the ethics committee of The Fourth Clinical College of Xinxiang Medical University. The in vivo experiments were carried out in accordance with the approved guidelines and approved by the ethics committee of The Fourth Clinical College of Xinxiang Medical University. The number of ethics approvals is XMU-2024–01-03. All authors have adhered to the ARRIVE guidelines (https://arriveguidelines.org/). BALB/c nude mice were purchased from Beijing Huafukang Biotechnology Co., LTD (Beijing, China), and fifteen mice were used in this study (aged 6–7 weeks and weighing 20–30 g). Before the animal experiments, all nude mice were given a week to adjust to the clean, hygienic and specific-pathogen-free environment. All nude mice were taken care of instainless steel cages with a constant temperature of 60% humidity, 25 °C and a 12/12 light/dark cycle. Nude mice were fed with refreshing water and nourishing food everyday.
Then, nude mice were anaesthetised with 2% isoflurane and 0.3 l/min of oxygen by the small animal anaesthesia machine (Beijing Yi Zejia Technology Co., LTD, Beijing, China). 3 × 10^5 human liver cancer HepG2 cells were subcutaneously injected in the right armpit of mice. Until the volume of tumours reached 60–100 mm^3, all mice were randomly divided into three groups and each group had five nude mice. An amount of 60 mg/kg of compound 14, 10 mg/kg of seclidemstat and water as the control group were given by gavage every day for 21 days. Weight of mice and tumour volume were measured every 3 d. All nude mice in this xenograft studies were performed euthanizing procedures using a carbon dioxide euthanasia chamber (Shanghai Yuyan Instruments Co., Ltd, Shanghai, China). The flow rate of carbon dioxide was adjusted at 20% of the volume of the euthanasia chamber per minute. Once nude mice were unconscious, the flow rate was increased to 100% of the euthanasia chamber volume per minute. Death was confirmed by immobility, non-breathing and pupil enlargement. Tumours form BALB/c nude mice were isolated and weighed.

Where two headings read alike, the source gives them in different places.

`O=c1[nH]cc(F)c(=O)[nH]1` [5-Fluorouracil]: the IC50 (usually the midpoint of a concentration-inhibition curve) in the test on MCF7 cells was greater than 20 µM; in the test on HL-60 cells, 7.25 µM; with PC3 cells, 12.3 µM; with HepG2 cells [1], 9.87 µM; in the test on OVCAR-3 cells, greater than 20 µM; in the test with A549 cells it was greater than 20 µM. For the same compound, the figures for the IC50 in the test with 8505 C cells, in the test with Caco-2 cells and in the test with C42B cells were 12.4 µM, greater than 20 µM and 16.7 µM, respectively.

In the case of `COc1cc2nc(NCCCN(C)C)nc(NC3CCN(Cc4ccc5ccccc5c4)CC3)c2cc1OC` [Compound 2], the “expression levels of H3K4me2” value in the test on H3K4me1/2 was “increases the expression levels of H3K4me2”. Also, the half-inhibitory concentration (IC50) in the test with THP-1 cells is 0.3 µM.

For `O=S(=O)(Nc1ccc(Br)cc1-c1nn[nH]n1)c1ccc(-c2ccc(Cl)cc2)cc1` [Compound 3], in the test with NB cells, the “synergistic effect with bortezomib” value was “displays the synergistic effect against NB cells with bortezomib”.

On to `COc1ccc(CN(C(=O)CSC(=S)N2CCN(c3ccc(N)cc3)CC2)c2cc(OC)c(OC)c(OC)c2)cc1O` [Compound 6], for which the “accumulation of H3K4me1/2” value in the test with H3K4me1/2 is “induces the accumulation of H3K4me1/2”. In addition, on LSD1 [2], the LSD1 inhibition result is on record as “inhibits LSD1”.

With `CCCCCCCCCCCCSC(=O)CC1CC(=O)NC(=O)C1` [Compound 7], the “cell cycle and clonogenic capacity” value with glioblastoma cells is “induces cell cycle arrest and reduces clonogenic capacity”.

As for `O=C1CCC(NC(=O)CSc2nnc3c(=O)[nH]c4ccccc4n23)C(=O)N1` (stereo not shown) [Compound 8], the IC50 in the test with MCF-7 (MCF-7 cell line) was 10.1 µM; with PC3, 15.5 µM; in the test on HepG2, 9.81 µM.

On to `Cc1nc2cccc(N)c2c(=O)n1C1CCC(=O)NC1=O` (stereo not shown) [Compound 9], for which the apoptosis and proliferation result in test [3] was “induces apoptosis and inhibits proliferation”.

On to `O=C1CCC(CS(=O)(=O)Cc2ccccc2)C(=O)N1` (stereo not shown) [Compound 10], for which the IC50 with MOLP-8 cells was 5.52 µM; in the test on KMS-12-PE cells it was 5.17 µM.

Turning to `Cc1ccc(S(=O)(=O)CCC(=O)Nc2ccc(S(N)(=O)=O)cc2)cc1` [Compound 11], the IC50 was 0.67 µM in the test on MCF-7 (MCF-7 cells) and 0.57 µM with HCT-116 cells.

With `COc1cccc(-c2cccc(NC(=O)CCc3cccc4c3B(O)OC4)c2)c1` [Compound 12], in the test on ovarian cancer cells, the “colony formation and apoptosis” value was “significantly inhibits colony formation and induces apoptosis”.

For `COc1cc(NC(=O)CCSc2nc3ccc(Cl)cc3c(=O)n2-c2ccc(F)cc2)cc(OC)c1OC` [Compound 13], the anticancer effects entry in the test with various cell lines was “exhibits extensive-spectrum anticancer effects”.

Take `O=C(c1ccc(OCCN2CCCCC2)cc1)c1c(-c2ccc(O)cc2)sc2cc(O)ccc12` [Raloxifene]: the “migration of ACHN cells” value in the test with ACHN cells is “inhibits migration against ACHN cells”.

As to `C/C(=N\NC(=O)c1cccc(S(=O)(=O)N2CCN(C)CC2)c1)c1cc(Cl)ccc1O` [Seclidemstat], on LSD1 [4], the IC50 stood at 0.02 ± 0.01 µM. In addition, the “growth of subcutaneous tumours” value with HepG2 cells [5] is “inhibited the growth of subcutaneous tumours”.
